{
  "source": "patent US11701359B2",
  "about": "“Exon 18 and/or exon 21 mutant EGFR selective inhibitor” (priority 2017, dated 2023)",
  "key": {"Ba/F3-EGFR_WT cells": {"system": "Ba/F3-EGFR_WT cells", "experiment": "Cell growth inhibitory effect, wild-type EGFR-expressing Ba/F3 cell line (CellTiter-Glo)", "type": "cell-based", "conditions": "Mus musculus, BaF3, 72 h, read-out: IC50 (nM) WT", "method": "(§1) Evaluation of Cell Growth Inhibitory Effect Against Wild-Type EGFR- and Mutant EGFR-Expressing Cell Line (In Vitro)\n(§2) The inhibitory activity of compounds against wild-type EGFR and mutant EGFR was evaluated using Ba/F3 cells, which are mouse B-lymphocyte precursor cell line to which a human EGFR gene was introduced.\n(§3) The solutions were then added to each well of the culture plate of the cells, and the cells were incubated in a 5% CO2 gas-containing incubator at 37° C. for 3 days. The cell count after incubation was measured by a CellTiter-Glo (trademark) Luminescent Cell Viability Assay (Promega Corporation) in accordance with the manufacturer's recommended protocol."}, "[1]": {"system": "Ba/F3-EGFR L861Q+T790M cells", "experiment": "Cell growth inhibitory effect, L861Q+T790M mutant EGFR-expressing Ba/F3 cell line (CellTiter-Glo)", "type": "cell-based, mouse", "conditions": "for IC50: Mus musculus, 72 h, read-out: IC50 (nM) L861Q + T790M", "method": "(§4) These solutions were then added to each well of the culture plate of the cells, and incubated in a 5% CO2 gas-containing incubator at 37° C. for 3 days. The cell count after incubation was measured using a CellTiter-Glo (trademark) Luminescent Cell Viability Assay (Promega Corporation), in accordance with the manufacturer's recommended protocol."}, "[2]": {"system": "Ba/F3-EGFR G719A+T790M cells", "experiment": "Cell growth inhibitory effect, G719A+T790M mutant EGFR-expressing Ba/F3 cell line (CellTiter-Glo)", "type": "cell-based, mouse", "conditions": "for IC50: Mus musculus, 72 h, read-out: IC50 (nM) G719A + T790M", "method": "as §4"}, "Ba/F3-EGFR G719A cells": {"system": "Ba/F3-EGFR G719A cells", "experiment": "Cell growth inhibitory effect, G719A mutant EGFR-expressing Ba/F3 cell line (CellTiter-Glo)", "type": "cell-based, mouse", "conditions": "for IC50: Mus musculus, 72 h, read-out: IC50 (nM) G719A", "method": "as §1, §2, §3"}, "Ba/F3-EGFR L861Q cells": {"system": "Ba/F3-EGFR L861Q cells", "experiment": "Cell growth inhibitory effect, L861Q mutant EGFR-expressing Ba/F3 cell line (CellTiter-Glo)", "type": "cell-based, mouse", "conditions": "for IC50: Mus musculus, 72 h, read-out: IC50 (nM) L861Q", "method": "as §1, §2, §3"}, "human EGFR G719A": {"molecular_target": "T1, human EGFR G719A (Homo sapiens, UniProt P00533, G719A)", "T1 construct": "expressed in transfected cells; host or cells: Jump-In Grip HEK293 cells (Thermo Fisher Scientific), pJTI R4 DEST CMV pA vector", "T1 sequence (P00533 25-1210 G719A)": "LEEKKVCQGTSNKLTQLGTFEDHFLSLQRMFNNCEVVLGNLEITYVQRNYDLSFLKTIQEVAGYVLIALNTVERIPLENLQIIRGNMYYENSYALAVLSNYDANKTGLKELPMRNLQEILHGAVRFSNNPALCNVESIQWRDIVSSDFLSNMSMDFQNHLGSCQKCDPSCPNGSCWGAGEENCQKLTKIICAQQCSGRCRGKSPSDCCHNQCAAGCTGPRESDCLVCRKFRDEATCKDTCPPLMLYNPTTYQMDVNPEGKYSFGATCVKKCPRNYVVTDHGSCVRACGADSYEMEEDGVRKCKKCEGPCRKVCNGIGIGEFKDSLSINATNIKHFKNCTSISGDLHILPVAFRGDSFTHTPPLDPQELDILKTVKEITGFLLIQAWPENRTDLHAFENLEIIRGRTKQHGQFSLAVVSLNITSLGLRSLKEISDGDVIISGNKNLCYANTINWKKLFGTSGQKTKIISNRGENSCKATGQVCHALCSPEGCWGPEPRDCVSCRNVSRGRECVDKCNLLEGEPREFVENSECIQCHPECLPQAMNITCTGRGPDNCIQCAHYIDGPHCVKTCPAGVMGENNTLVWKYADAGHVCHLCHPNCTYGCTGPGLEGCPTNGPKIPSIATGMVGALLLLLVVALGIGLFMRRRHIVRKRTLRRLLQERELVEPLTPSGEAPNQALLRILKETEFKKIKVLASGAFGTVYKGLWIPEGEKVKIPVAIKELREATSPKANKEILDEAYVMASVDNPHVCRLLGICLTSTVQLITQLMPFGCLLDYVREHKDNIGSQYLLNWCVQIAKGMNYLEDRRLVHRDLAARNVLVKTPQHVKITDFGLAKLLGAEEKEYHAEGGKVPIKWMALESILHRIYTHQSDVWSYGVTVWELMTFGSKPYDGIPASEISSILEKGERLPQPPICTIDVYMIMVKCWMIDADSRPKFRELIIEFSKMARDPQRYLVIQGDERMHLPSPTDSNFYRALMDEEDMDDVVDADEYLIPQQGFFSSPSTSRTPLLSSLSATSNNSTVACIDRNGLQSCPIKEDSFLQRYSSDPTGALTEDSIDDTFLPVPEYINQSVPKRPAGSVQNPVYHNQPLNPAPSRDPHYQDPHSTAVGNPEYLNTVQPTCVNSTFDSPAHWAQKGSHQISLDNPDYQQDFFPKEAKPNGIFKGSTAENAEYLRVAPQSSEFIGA", "experiment": "Intracellular EGFR phosphorylation in mutant EGFR forced expression system using HEK293 cells", "type": "cell-based", "conditions": "HEK293 cells expressing human EGFR G719A, 6 hours; read-out: IC50, phosphorylated EGFR inhibition, G719A"}, "human EGFR G719S": {"molecular_target": "T2, human EGFR G719S (Homo sapiens, UniProt P00533, G719S)", "T2 construct": "expressed in transfected cells; host or cells: Jump-In Grip HEK293 cells (Thermo Fisher Scientific), pJTI R4 DEST CMV pA vector", "T2 sequence (P00533 25-1210 G719S)": "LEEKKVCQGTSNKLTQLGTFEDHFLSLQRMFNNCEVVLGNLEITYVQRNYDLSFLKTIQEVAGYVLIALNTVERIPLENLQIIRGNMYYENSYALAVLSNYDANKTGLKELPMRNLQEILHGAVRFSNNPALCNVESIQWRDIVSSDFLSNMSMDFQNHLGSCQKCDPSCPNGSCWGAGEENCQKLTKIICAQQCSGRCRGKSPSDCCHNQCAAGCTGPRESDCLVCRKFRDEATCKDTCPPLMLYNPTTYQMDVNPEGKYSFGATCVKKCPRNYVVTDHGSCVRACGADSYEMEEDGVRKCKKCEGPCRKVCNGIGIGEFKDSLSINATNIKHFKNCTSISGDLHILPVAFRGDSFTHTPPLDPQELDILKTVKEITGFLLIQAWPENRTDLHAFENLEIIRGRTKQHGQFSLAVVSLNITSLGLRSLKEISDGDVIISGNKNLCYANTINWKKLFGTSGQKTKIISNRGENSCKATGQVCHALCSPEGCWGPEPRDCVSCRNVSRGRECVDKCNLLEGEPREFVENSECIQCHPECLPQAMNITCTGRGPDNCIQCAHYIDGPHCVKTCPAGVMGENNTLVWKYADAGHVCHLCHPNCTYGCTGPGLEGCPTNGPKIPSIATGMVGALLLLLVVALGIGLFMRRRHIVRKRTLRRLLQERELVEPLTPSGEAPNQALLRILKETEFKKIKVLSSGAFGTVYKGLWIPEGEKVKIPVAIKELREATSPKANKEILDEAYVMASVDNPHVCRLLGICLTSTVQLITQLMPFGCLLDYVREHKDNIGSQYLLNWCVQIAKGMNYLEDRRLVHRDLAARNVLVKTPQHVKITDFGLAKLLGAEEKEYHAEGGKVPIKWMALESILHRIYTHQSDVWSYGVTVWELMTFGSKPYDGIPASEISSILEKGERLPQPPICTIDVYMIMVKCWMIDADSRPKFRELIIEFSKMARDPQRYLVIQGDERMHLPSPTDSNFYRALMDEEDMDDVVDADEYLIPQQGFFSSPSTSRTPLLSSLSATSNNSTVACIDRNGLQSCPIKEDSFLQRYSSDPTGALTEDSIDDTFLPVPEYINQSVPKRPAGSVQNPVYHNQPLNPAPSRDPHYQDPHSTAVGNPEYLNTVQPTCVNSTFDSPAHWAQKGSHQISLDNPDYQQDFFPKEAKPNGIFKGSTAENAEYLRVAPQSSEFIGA", "experiment": "Intracellular EGFR phosphorylation in mutant EGFR forced expression system using HEK293 cells", "type": "cell-based", "conditions": "HEK293 cells expressing human EGFR G719S, 6 hours; read-out: IC50, phosphorylated EGFR inhibition, G719S"}, "human EGFR E709A": {"molecular_target": "T3, human EGFR E709A (Homo sapiens, UniProt P00533, E709A)", "T3 construct": "expressed in transfected cells; host or cells: Jump-In Grip HEK293 cells (Thermo Fisher Scientific), pJTI R4 DEST CMV pA vector", "T3 sequence (P00533 25-1210 E709A)": "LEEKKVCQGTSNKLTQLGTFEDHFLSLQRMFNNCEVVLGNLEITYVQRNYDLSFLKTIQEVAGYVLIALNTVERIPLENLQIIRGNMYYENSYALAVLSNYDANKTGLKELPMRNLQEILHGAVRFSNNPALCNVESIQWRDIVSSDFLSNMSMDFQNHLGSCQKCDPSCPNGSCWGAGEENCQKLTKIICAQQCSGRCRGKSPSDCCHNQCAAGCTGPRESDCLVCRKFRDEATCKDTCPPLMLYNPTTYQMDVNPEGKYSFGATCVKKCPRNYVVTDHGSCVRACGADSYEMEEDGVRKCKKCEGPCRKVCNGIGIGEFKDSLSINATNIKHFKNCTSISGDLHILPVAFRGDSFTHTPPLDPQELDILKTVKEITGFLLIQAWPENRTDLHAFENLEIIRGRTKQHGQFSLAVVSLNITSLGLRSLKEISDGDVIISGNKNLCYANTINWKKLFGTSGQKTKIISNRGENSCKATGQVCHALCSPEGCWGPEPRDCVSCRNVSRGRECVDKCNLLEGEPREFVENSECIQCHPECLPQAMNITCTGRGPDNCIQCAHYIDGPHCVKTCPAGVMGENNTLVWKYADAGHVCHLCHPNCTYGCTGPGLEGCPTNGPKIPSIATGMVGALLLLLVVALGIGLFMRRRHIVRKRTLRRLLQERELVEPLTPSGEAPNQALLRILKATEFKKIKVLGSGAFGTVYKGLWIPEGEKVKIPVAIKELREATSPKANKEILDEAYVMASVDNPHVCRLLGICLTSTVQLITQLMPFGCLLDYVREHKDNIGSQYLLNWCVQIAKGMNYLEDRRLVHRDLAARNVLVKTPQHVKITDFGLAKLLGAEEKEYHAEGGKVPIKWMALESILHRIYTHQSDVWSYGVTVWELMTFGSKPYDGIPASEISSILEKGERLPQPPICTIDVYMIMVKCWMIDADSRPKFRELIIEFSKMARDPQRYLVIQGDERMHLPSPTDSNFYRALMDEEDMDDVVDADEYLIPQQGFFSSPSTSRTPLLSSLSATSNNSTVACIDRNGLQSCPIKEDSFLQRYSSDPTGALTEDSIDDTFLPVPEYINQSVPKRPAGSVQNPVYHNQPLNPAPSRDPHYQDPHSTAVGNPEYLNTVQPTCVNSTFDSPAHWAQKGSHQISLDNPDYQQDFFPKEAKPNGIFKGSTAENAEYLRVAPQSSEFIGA", "experiment": "Intracellular EGFR phosphorylation in mutant EGFR forced expression system using HEK293 cells", "type": "cell-based", "conditions": "HEK293 cells expressing human EGFR E709A, 6 hours; read-out: IC50, phosphorylated EGFR inhibition, E709A"}, "human EGFR L861Q+T790M": {"molecular_target": "T4, human EGFR L861Q+T790M (Homo sapiens, UniProt P00533, L861Q/T790M)", "T4 construct": "expressed in transfected cells; host or cells: Jump-In Grip HEK293 cells (Thermo Fisher Scientific), pJTI R4 DEST CMV pA vector", "T4 sequence (P00533 25-1210 T790M/L861Q)": "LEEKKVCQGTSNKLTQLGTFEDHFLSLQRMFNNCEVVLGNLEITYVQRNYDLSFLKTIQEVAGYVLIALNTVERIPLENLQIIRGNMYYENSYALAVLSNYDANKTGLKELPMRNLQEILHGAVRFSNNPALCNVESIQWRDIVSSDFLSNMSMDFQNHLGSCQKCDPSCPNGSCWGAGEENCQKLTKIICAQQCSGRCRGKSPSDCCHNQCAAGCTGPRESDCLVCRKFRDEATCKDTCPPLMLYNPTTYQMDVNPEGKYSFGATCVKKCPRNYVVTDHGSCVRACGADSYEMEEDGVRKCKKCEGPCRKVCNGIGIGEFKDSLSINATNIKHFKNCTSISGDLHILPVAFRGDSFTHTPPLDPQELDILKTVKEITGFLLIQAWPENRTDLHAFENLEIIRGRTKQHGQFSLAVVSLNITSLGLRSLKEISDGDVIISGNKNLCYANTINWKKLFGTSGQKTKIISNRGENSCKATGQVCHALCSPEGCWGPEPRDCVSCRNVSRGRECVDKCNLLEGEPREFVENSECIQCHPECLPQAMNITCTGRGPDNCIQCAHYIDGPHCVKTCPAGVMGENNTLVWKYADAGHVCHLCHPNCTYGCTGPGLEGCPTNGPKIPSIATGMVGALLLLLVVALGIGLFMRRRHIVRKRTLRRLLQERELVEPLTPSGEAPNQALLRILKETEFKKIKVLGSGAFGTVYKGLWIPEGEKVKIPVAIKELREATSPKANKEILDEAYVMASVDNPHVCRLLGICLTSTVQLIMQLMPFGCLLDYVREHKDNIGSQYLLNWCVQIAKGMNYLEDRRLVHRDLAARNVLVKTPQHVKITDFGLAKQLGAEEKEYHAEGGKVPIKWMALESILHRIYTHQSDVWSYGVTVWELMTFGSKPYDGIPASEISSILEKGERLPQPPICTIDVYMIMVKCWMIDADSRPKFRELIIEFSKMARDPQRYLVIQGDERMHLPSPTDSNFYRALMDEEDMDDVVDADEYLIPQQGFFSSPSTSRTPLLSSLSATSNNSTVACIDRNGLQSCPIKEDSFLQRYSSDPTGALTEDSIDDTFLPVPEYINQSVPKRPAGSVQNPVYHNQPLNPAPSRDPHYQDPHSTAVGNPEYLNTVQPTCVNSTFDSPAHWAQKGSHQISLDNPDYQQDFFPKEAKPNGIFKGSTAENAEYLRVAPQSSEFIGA", "experiment": "Intracellular EGFR phosphorylation in mutant EGFR forced expression system using HEK293 cells", "type": "cell-based", "conditions": "HEK293 cells expressing human EGFR L861Q+T790M, 6 hours; read-out: IC50, phosphorylated EGFR inhibition, L861Q + T790M"}, "[3]": {"experiment": "Antitumor effect on mouse model subcutaneously transplanted with G719A mutant EGFR-expressing cell line", "conditions": "nude, mouse, in vivo, po", "method": "(§5) The maximum tolerated dose was determined in accordance with the “Guidelines Involving Experimental Neoplasia Proposals in Mice and Rats” of the National Cancer Institute (NCI), from a humanitarian perspective.\n(§6) To compare the changes in growth of tumor over time due to administration of the individual test compounds, the tumor volume (which may be hereinafter referred to as “TV”) was used as an index. For a toxicity index, the body weight was measured over time, and the body weight change (which may be hereinafter referred to as “BWC (%)”) from the day on which the mice were divided into groups was calculated in accordance with the following formula. BWC (%)=(the body weight measured on body weight measurement day)/(the body weight on the day mice were divided into groups)\n(§7) T/C (%)=(the average TV of the group administered with a test compound)/(the average TV of the control group)×100"}, "NIH3T3-EGFR G719A cells": {"system": "NIH3T3-EGFR G719A cells", "experiment": "Antitumor effect on mouse model subcutaneously transplanted with G719A mutant EGFR-expressing cell line", "conditions": "nude mice", "method": "as §5, §6, §7"}, "human EGFR L861Q": {"molecular_target": "T5, human EGFR L861Q (Homo sapiens, UniProt P00533, L861Q)", "T5 construct": "expressed in transfected cells; host or cells: Jump-In Grip HEK293 cells (Thermo Fisher Scientific), pJTI R4 DEST CMV pA vector", "experiment": "Intracellular EGFR phosphorylation in mutant EGFR forced expression system using HEK293 cells", "type": "cell-based", "conditions": "HEK293 cells expressing human EGFR L861Q, 6 hours; read-out: IC50, phosphorylated EGFR inhibition, L861Q"}, "human EGFR E709K": {"molecular_target": "T6, human EGFR E709K (Homo sapiens, UniProt P00533, E709K)", "T6 construct": "expressed in transfected cells; host or cells: Jump-In Grip HEK293 cells (Thermo Fisher Scientific), pJTI R4 DEST CMV pA vector", "experiment": "Intracellular EGFR phosphorylation in mutant EGFR forced expression system using HEK293 cells", "type": "cell-based", "conditions": "HEK293 cells expressing human EGFR E709K, 6 hours; read-out: IC50, phosphorylated EGFR inhibition, E709K"}, "[4]": {"system": "NIH3T3-EGFR G719A+T790M cells", "experiment": "in vivo", "conditions": "nude mice; for T/C (%): final evaluation day", "method": "as §5\n(§8) To compare the changes in growth of tumor over time due to administration of the individual test compounds, the tumor volume (which may be hereinafter referred to as “TV”) was used as an index. […] For a toxicity index, the body weight was measured over time, and the body weight change (which may be hereinafter referred to as “BWC (%)”) from the day on which the mice were divided into groups was calculated in accordance with the following formula. […] BWC (%)=(the body weight measured on body weight measurement day)/(the body weight on the day mice were divided into groups)\n(§9) A Dunnett's test was performed using the average TV on the final evaluation day as an index. […] T/C (%)=(the average TV of the group administered with a test compound)/(the average TV of the control group)×100"}, "in vivo": {"experiment": "in vivo", "conditions": "mouse, in vivo; nude mice, oral once daily, 14 days, G719A+T790M model; read-out: Maximum tolerated dose (weight loss during dosing period less than 20%)", "method": "as §5, §8, §9"}, "human EGFR G719C": {"molecular_target": "T7, human EGFR G719C (Homo sapiens, UniProt P00533, G719C)", "T7 construct": "expressed in transfected cells; host or cells: Jump-In Grip HEK293 cells (Thermo Fisher Scientific), pJTI R4 DEST CMV pA vector", "experiment": "Intracellular EGFR phosphorylation in mutant EGFR forced expression system using HEK293 cells", "type": "cell-based", "conditions": "HEK293 cells expressing human EGFR G719C, 6 hours; read-out: IC50, phosphorylated EGFR inhibition, G719C"}, "human EGFR G719A+T790M": {"molecular_target": "T8, human EGFR G719A+T790M (Homo sapiens, UniProt P00533, G719A/T790M)", "T8 construct": "expressed in transfected cells; host or cells: Jump-In Grip HEK293 cells (Thermo Fisher Scientific), pJTI R4 DEST CMV pA vector", "experiment": "Intracellular EGFR phosphorylation in mutant EGFR forced expression system using HEK293 cells", "type": "cell-based", "conditions": "HEK293 cells expressing human EGFR G719A+T790M, 6 hours; read-out: IC50, phosphorylated EGFR inhibition, G719A + T790M"}},
  "note": "Like-named read-outs stand apart in the source and are kept apart here.",
  "data": [
    {"smiles": "C=CC(=O)Nc1cc(Nc2nccc(-c3cn(C)c4ccccc34)n2)c(OC)cc1N(C)CCN(C)C", "note": "[Osimertinib, osimertinib, reference compound]", "values": [
      {"measurement": "IC50", "setting": "Ba/F3-EGFR_WT cells", "value": 379, "unit": "nM"},
      {"measurement": "IC50", "setting": "[1]; Ba/F3 EGFR", "value": 36.4, "unit": "nM"},
      {"measurement": "IC50", "setting": "[2]; Ba/F3 EGFR", "value": 89.4, "unit": "nM"},
      {"measurement": "IC50", "setting": "Ba/F3-EGFR G719A cells; Ba/F3 EGFR", "value": 209, "unit": "nM"},
      {"measurement": "IC50", "setting": "Ba/F3-EGFR L861Q cells; Ba/F3 EGFR", "value": 47, "unit": "nM"}
    ]},
    {"smiles": "C=CC(=O)N[C@H]1C=C(C)c2c(-c3cnc4ccccc4c3)c3c(N)ncnc3n2C1", "note": "[Compound A, (S)-N-(4-amino-6-methyl-5-(quinolin-3-yl)-8,9-dihydropyrimido[5,4-b]indolizin-8-yl)acrylamide]", "values": [
      {"measurement": "IC50", "setting": "human EGFR G719A", "value": 20500, "unit": "nM"},
      {"measurement": "IC50", "setting": "human EGFR G719S", "value": 22700, "unit": "nM"},
      {"measurement": "IC50", "setting": "human EGFR E709A", "value": 103000, "unit": "nM"},
      {"measurement": "IC50", "setting": "human EGFR L861Q+T790M", "value": 81800, "unit": "nM"},
      {"measurement": "MTD at 14 days", "setting": "[3]", "value": 200, "unit": "mg/kg/day"},
      {"measurement": "Symptoms (weight loss, abnormal feces, abnormal skin)", "setting": "NIH3T3-EGFR G719A cells; NIH3T3-EGFR G719A model, oral once daily 14 days, FIG. 2", "value": "did not show symptoms"},
      {"measurement": "Antitumor effect (tumor volume)", "setting": "NIH3T3-EGFR G719A cells; NIH3T3-EGFR G719A subcutaneous, oral once daily 14 days, 50, 100, 200 mg/kg/day, FIG. 1", "value": "remarkable antitumor effect"},
      {"measurement": "IC50", "setting": "human EGFR L861Q", "value": 40500, "unit": "nM"},
      {"measurement": "IC50", "setting": "Ba/F3-EGFR_WT cells; Ba/F3 cells with human wild-type EGFR, 50 ng/mL EGF, 3 days", "value": 597, "unit": "nM"},
      {"measurement": "IC50 Ratio WT/L861Q + T790M", "setting": "[1]; IC50 (WT)/IC50 (L861Q+T790M), Ba/F3 cells", "value": 15.9},
      {"measurement": "IC50", "setting": "[1]; Ba/F3 cells with human EGFR L861Q+T790M, no EGF, 3 days", "value": 37.5, "unit": "nM"},
      {"measurement": "IC50", "setting": "human EGFR E709K", "value": 86000, "unit": "nM"},
      {"measurement": "IC50 Ratio WT/G719A + T790M", "setting": "[2]; IC50 (WT)/IC50 (G719A+T790M), Ba/F3 cells", "value": 37.9},
      {"measurement": "IC50", "setting": "[2]; Ba/F3 cells with human EGFR G719A+T790M, no EGF, 3 days", "value": 15.8, "unit": "nM"},
      {"measurement": "T/C (%)", "setting": "[4]; 50 mg/kg, oral once daily", "value": 47.7, "unit": "%"},
      {"measurement": "T/C (%)", "setting": "[4]; 100 mg/kg, oral once daily", "value": 36.4, "unit": "%"},
      {"measurement": "T/C (%)", "setting": "[4]; 200 mg/kg, oral once daily", "value": 28.0, "unit": "%"},
      {"measurement": "Symptoms (weight loss, abnormal feces, abnormal skin)", "setting": "[4]; NIH3T3-EGFR G719A+T790M model, oral once daily, FIG. 4", "value": "without symptoms such as serious weight loss"},
      {"measurement": "Antitumor effect (tumor volume)", "setting": "[4]; NIH3T3-EGFR G719A+T790M subcutaneous, oral once daily, 50, 100, 200 mg/kg/day, FIG. 3", "value": "significant antitumor effect"},
      {"measurement": "MTD at 14 days", "setting": "in vivo", "value": 200, "unit": "mg/kg/day"},
      {"measurement": "IC50", "setting": "human EGFR G719C", "value": 9300, "unit": "nM"},
      {"measurement": "IC50 Ratio WT/G719A", "setting": "Ba/F3-EGFR G719A cells; IC50 (WT)/IC50 (G719A), Ba/F3 cells", "value": 66.4},
      {"measurement": "IC50", "setting": "Ba/F3-EGFR G719A cells; Ba/F3 cells with human EGFR G719A, no EGF, 3 days", "value": 9, "unit": "nM"},
      {"measurement": "IC50 Ratio WT/L861Q", "setting": "Ba/F3-EGFR L861Q cells; IC50 (WT)/IC50 (L861Q), Ba/F3 cells", "value": 31.4},
      {"measurement": "IC50", "setting": "Ba/F3-EGFR L861Q cells; Ba/F3 cells with human EGFR L861Q, no EGF, 3 days", "value": 19, "unit": "nM"},
      {"measurement": "IC50", "setting": "human EGFR G719A+T790M", "value": 31300, "unit": "nM"}
    ]}
  ]
}
